Results reported in PubChem BioAssay (NCI).
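Cells were grown in 96-well plates and exposed to each compound for 48 hours at five concentrations; endpoints were interpolated linearly between bracketing concentrations, or set to the highest concentration if not reached. TGI denotes the concentration required for complete inhibition of growth.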

What was measured:
Test in all cases: NCI-60 cell line screen, 48 h
[1] = system: 786-0 renal
[2] = system: A498 renal
[3] = system: A549 NSCLC
[4] = system: ACHN renal
[5] = system: BT-549 breast
[6] = system: CAKI-1 renal
[7] = system: CCRF-CEM leukemia
[8] = system: COLO 205 colon
[9] = system: DU-145 prostate
[10] = system: EKVX NSCLC
[11] = system: HCC-2998 colon
[12] = system: HCT-116 colon
[13] = system: HCT-15 colon
[14] = system: HL-60(TB) leukemia
[15] = system: HOP-62 NSCLC
[16] = system: HOP-92 NSCLC
[17] = system: HS 578T breast
[18] = system: HT29 colon
[19] = system: IGROV1 ovarian
[20] = system: K-562 leukemia
[21] = system: KM12 colon
[22] = system: LOX IMVI melanoma
[23] = system: M14 melanoma
[24] = system: MALME-3M melanoma
[25] = system: MCF7 breast
[26] = system: MDA-MB-231 breast
[27] = system: MDA-MB-435
[28] = system: MDA-N
[29] = system: MOLT-4 leukemia
[30] = system: NCI-H226 lung
[31] = system: NCI-H23 lung
[32] = system: NCI-H460 lung
[33] = system: NCI-H522 lung
[34] = system: NCI/ADR-RES ovarian
[35] = system: OVCAR-3 ovarian
[36] = system: OVCAR-4 ovarian
[37] = system: OVCAR-5 ovarian
[38] = system: OVCAR-8 ovarian
[39] = system: PC-3 prostate
[40] = system: RPMI-8226 leukemia
[41] = system: RXF 393 renal
[42] = system: SF-268 CNS
[43] = system: SF-295 CNS
[44] = system: SF-539 CNS
[45] = system: SK-MEL-2 melanoma
[46] = system: SK-MEL-28 melanoma
[47] = system: SK-MEL-5 melanoma
[48] = system: SK-OV-3 ovarian
[49] = system: SN12C renal
[50] = system: SNB-19 CNS
[51] = system: SNB-75 CNS
[52] = system: SR leukemia
[53] = system: SW-620 colon
[54] = system: T-47D breast
[55] = system: TK-10 renal
[56] = system: U251 CNS
[57] = system: UACC-257 melanoma
[58] = system: UACC-62 melanoma
[59] = system: UO-31 renal

OC1c2c(ccc3c2CCC3)CC12Cc1ccccc1C2 (centres undefined)
TGI [1]: 30.9 µM | TGI [2]: 30.2 µM | TGI [3]: 34.5 µM | TGI [4]: 32.7 µM | TGI [5]: 31.6 µM | TGI [6]: 33.4 µM | TGI [7]: 83.1 µM | TGI [8]: 31.9 µM | TGI [9]: 31.2 µM | TGI [10]: 31.4 µM | TGI [11]: 27.5 µM | TGI [12]: 29.7 µM | TGI [13]: 30.2 µM | TGI [14]: 44.7 µM | TGI [15]: 30.1 µM | TGI [16]: 25.8 µM | TGI [17]: 35.5 µM | TGI [18]: 31.3 µM | TGI [19]: 47.5 µM | TGI [20]: 54.9 µM | TGI [21]: 29.7 µM | TGI [22]: 29.4 µM | TGI [23]: 28.8 µM | TGI [24]: 25.2 µM | TGI [25]: 32.8 µM | TGI [26]: 29.4 µM | TGI [27]: 29.5 µM | TGI [28]: 28.8 µM | TGI [29]: > 100 µM | TGI [30]: 26.6 µM | TGI [31]: 30.9 µM | TGI [32]: 33 µM | TGI [33]: 30.3 µM | TGI [34]: 35.4 µM | TGI [35]: 26.5 µM | TGI [36]: 38.3 µM | TGI [37]: 31.3 µM | TGI [38]: 33.7 µM | TGI [39]: 30.3 µM | TGI [40]: 50.8 µM | TGI [41]: 27.2 µM | TGI [42]: 29.4 µM | TGI [43]: 31.9 µM | TGI [44]: 35.8 µM | TGI [45]: 28.8 µM | TGI [46]: 30.5 µM | TGI [47]: 29.3 µM | TGI [48]: 32.9 µM | TGI [49]: 28.8 µM | TGI [50]: 32.9 µM | TGI [51]: 35.6 µM | TGI [52]: 44.6 µM | TGI [53]: 32.8 µM | TGI [54]: 53.5 µM | TGI [55]: 28 µM | TGI [56]: 29.7 µM | TGI [57]: 27.4 µM | TGI [58]: 29.4 µM | TGI [59]: 27.4 µM
